Source: patent US8586548B2, “NAP alpha-aminoisobutyric acid analog with neuroprotective activity” (Ramot at Tel-Aviv University, Ltd., priority 2009, dated 2013)
Non-standard residues stand in square brackets, D forms with d. No end group written: not given here. Aib = CC(C)(N)C(=O)O

How the values were obtained:
[1] = test system: ADNP heterozygous male mice; assay: Passive avoidance test; type: in vivo, mouse
Experimental: (§1) The heterozygous ADNP mice were generated as before (Pinhasov et al., Brain Res. Dev. Brain Res. 2003, 144:83-90; and Vulih-Shultzman et al., J Pharmacol Exp Ther. 2007, 323(2):438-49). To avoid any variability in results associated with the estrous cycle in females, only ADNP^+/− male mice are use for behavioral experiments.
(§2) Iso-NAP (NAXaaVSIXaaQ; SEQ ID NO:1) was dissolved in a vehicle solution, in which each milliliter included 7.5 mg of NaCl, 1.7 mg of citric acid monohydrate, 3 mg of disodium phosphate dihydrate, and 0.2 mg of benzalkonium chloride solution (50%). Iso-NAP or vehicle solution (DD) was administered to mice handheld in a semi-supine position with nostrils facing the investigator. A pipette tip was used to administer 2.5 μl/each nostril. The mouse was handheld until the solution is entirely absorbed. Nasal Iso-NAP application was performed daily, once a day, for 2 weeks for the Morris water maze test. In the 2nd week, Iso-NAP was applied 1 h before the daily test (see below), which was conducted for 5 consecutive days. In the passive avoidance test, all mice were treated for a total of 7 days, on the 7th day of treatment the test began. Iso-NAP was applied 1 h before the test.
The passive avoidance task is a fear-motivated avoidance task based on the mouse conflict between avoiding the light stimulus and approaching the dark chamber in which a painful shock is given. The mouse learns to refrain from stepping through a door to an apparently safer but previously punished dark compartment. The latency to refrain from crossing into the punished compartment serves as an index of the ability to avoid, and allows memory to be assessed (Johns Hopkins University, Department of Psychological and Brain Sciences, website: nbc.jhu.edu/protocols/PassiveAvoidanceProtocol.aspx). […]
The experiment is carried out for three days. […] The time to enter the dark compartment is recorded. […] The door is opened after 30 seconds, and the time it takes the mouse to enter the dark chamber is recorded. […] After 30 seconds (T0), the door is opened and the latency to enter the dark chamber is recorded. […]

[2] = test system: ADNP^+/− male mice; assay: Morris water maze test; type: in vivo, mouse
Experimental: as §1, §2
The mouse is placed in a pool of water that is colored opaque with powdered non-fat milk, where it must swim to a hidden escape platform. The position of the platform is altered between days but remains constant within each day. Because it is in opaque water, the mouse cannot see the platform, and cannot rely on scent to find the escape route. As the mouse becomes more familiar with the task, it is able to find the platform more quickly.
Pool diameter—140 cm, Platform—clear plaxiglass, 12 cm in diameter, 2 cm below the surface of the water, Water temperature—22-23° C., Room temperature—26-28° C.
Mice are treated with Iso-NAP/vehicle and then habituated for 1 hour in the experimental room. […] The time requires to reach the platform in each trial is measured. […]

NAXaaVSIXaaQ (NA[Aib]VSI[Aib]Q) [Alpha-aminoisobutyric NAP, both prolines of NAP substituted]
latency to enter the dark room at T0 and T30 vs T-trial ([1]; 2 μg/mice intranasal, P<0.05): entered the dark room significantly slower than on the T-trial | effect on learning and memory (conclusion) ([1]; 2 μg/mice, conclusion from Morris water maze and passive avoidance tests): seems to affect positively learning and memory | latency to enter the dark room ([1]; 30 μg/mice intranasal): entered the dark room faster than the NAP2 group | Morris water maze performance (working memory) vs vehicle controls ([2]; 2 μg/5 μl/mouse/day intranasal, third day of testing, P<0.05): performed better than controls | Morris water maze performance (working memory) vs vehicle controls ([2]; 30 μg/5 μl/mouse/day intranasal, day 2 P<0.05, day 3 P<0.07, listed as Iso-NAP): better than control on testing days 2 and 3 | Morris water maze performance (working memory) vs vehicle controls ([2]; 30 μg/5 μl/mouse/day intranasal, day 2 P<0.05, day 3 P<0.07, listed as IsoNAP): seems to affect the spatial memory
